Here are results for 37 compounds from patent publication US20250346601A1, “HETEROCYCLIC COMPOUNDS FOR THE PREVENTION AND THERAPY OF CIRCADIAN RHYTHM DISORDERS” (UNIVERZITA PALACKEHO V OLOMOUCI, priority 2022, published 2025).

Test [1] deals with U2OS line transduced with the Bmal 1-Luc reporter. The test can be described thus: Period of the circadian rhythm in U2OS cells with Bmal1-Luc reporter (luminescence, cosinor analysis). In kind it is cell-based, Human. Particulars: U2OS, DMSO control = 1.00. As to the method:
Human osteosarcoma U2OS cells were grown in standard DMEM medium with 10% fetal bovine serum. U2OS cells were transduced with lentiviral particles containing a Bmall-Luc fusion reporter and selected under Blasticidin. The cell line was clonally expanded and a single monoclonal cell line was used for further experiments. Cells were cultured in a 384-well plate in growth medium to 90+% confluence. Test compound or vehicle (DMSO) was applied to recording medium with 100 U/ml penicillin, 100 ug/ml streptomycin, 1x GlutaMAX, 10% fetal bovine serum, and 0.1 mM Luciferin-EF. Luminescence was recorded every hour for the next 144 hours. Circadian rhythm analysis was performed using cosinor analysis.
The length of the period was expressed relative to the period of cells affected only by DMSO vehicle (their period is therefore 1.00). […] The overall effect on circadian oscillations unequivocally proves that the compounds of formula I can be also used to temporally modulate the concentration and activity of not only BMAL1, but also other components of the oscillator including the critical components PER2, CRY and CLOCK in time, as these are an essential part of the mechanism generating the rhythmic expression of the luminescent reporter used. The concentration and level of other proteins, whose rhythmic expression is controlled by an oscillator in the brain and peripheral tissues (so-called clock-controlled genes), are also necessarily affected. The influence of the compounds of formula I on the activity of oscillator components and subordinate genes also means influencing the physiological processes of the cell controlled by these genes and proteins. N^6-furfuryladenine was used as a reference compound. […] The ability to shift the phase of the circadian cycle can be seen in FIG. 2.

Test [2] deals with NIH3T3 line transfected with the Per2-Luc reporter. Put plainly: Period of the circadian rhythm in NIH3T3 fibroblasts with Per2-Luc reporter (luminescence, cosinor analysis). In kind it is cell-based, mouse. To be noted: NIH3T3, DMSO control = 1.00. As to the method:
NIH3T3 mouse embryonic fibroblasts were grown in standard DMEM with 10% fetal bovine serum. NIH3T3 cells were transfected with 1 μg of Per2-Luc reporter using GeneJuice and selected under hygromycin. The cell line was clonally expanded and a single monoclonal cell line was used for further experiments. Cells were cultured in a 96-well plate in growth medium to 90+% confluence. Test compound or vehicle (DMSO) was applied to recording medium with 100 U/ml penicillin, 100 μg/ml streptomycin, 1x GlutaMAX, 10% fetal calf serum and 0.1 mM Luciferin-EF (Promega Madison, WI, USA). Luminescence was recorded every hour for the next 144 hours. Circadian rhythm analysis was performed using cosinor analysis. Period length was expressed relative to the period of cells affected only by DMSO vehicle (their period length is therefore 1.00).

Values joined by “and” are separate entries in the source; they are usually repeats but may differ in a detail not shown here. Equal values may be shown once.

On to `Clc1nc(NCc2ccco2)c2[nH]cnc2n1` [2-chloro-N^6-furfuryladenine, reference compound], for which, in test [1] (20 μM), the “Period length ± standard error of the mean (expressed relative to control) at the indicated concentration” value is on record as 20 μM: 1.00 ± 0.03.
On to `CCOCCn1cnc2c(NCc3ccco3)ncnc21` [9-(2-ethoxyethyl)-N-(furan-2-ylmethyl)-9H-purin-6-amine, reference compound], for which the “Period length ± standard error of the mean (expressed relative to the control) at the indicated concentration” value in test [2] (50 μM) is listed as 50 μM: 0.97 ± 0.03. In addition, the “Period length ± standard error of the mean (expressed relative to control) at the indicated concentration” value in test [1] (50 μM) was 50 μM: 0.99 ± 0.01.
As to `CCOCn1cnc2c(NCc3ccco3)ncnc21` [9-(ethoxymethyl)-N-(furan-2-ylmethyl)-9H-purin-6-amine, reference compound], the “Period length ± standard error of the mean (expressed relative to the control) at the indicated concentration” value in test [2] (50 μM) was 50 μM: 1 ± 0.03. Further, the “Period length ± standard error of the mean (expressed relative to control) at the indicated concentration” value in test [1] (50 μM) is recorded as 50 μM: 1.01 ± 0.01.
For `Nc1ncnc2c1ncn2C1CCCO1` (stereo not drawn) [9-(tetrahydrofuran-2-yl)-9H-purin-6-amine, reference compound], the “Period length ± standard error of the mean (expressed relative to control) at the indicated concentration” value in test [1] (20 μM) is reported as 20 μM: 0.98 ± 0.02.
In the case of `c1coc(CNc2ncnc3c2ncn3C2CCCO2)c1` (stereo not drawn) [Compound 2], in test [1] (10 μM), the “Period length ± standard error of the mean (expressed relative to control) at the indicated concentration” value was 10 μM: 1.05 ± 0.01.
Take `c1coc(CNc2ncnc3c2ncn3C2CCOC2)c1` (stereo not drawn) [Compound 3, N-(furan-2-ylmethyl)-9-(tetrahydrofuran-3-yl)-9H-purin-6-amine]: the “Period length ± standard error of the mean (expressed relative to control) at the indicated concentration” value in test [1] (10 μM) was 10 μM: 1.06 ± 0.01.
On the same count and under the same terms, as for `c1coc(CNc2ncnc3c2ncn3C2CCOCC2)c1` [Compound 5], the figure is 10 μM: 1.05 ± 0.01.
In the case of `Clc1nc(NCc2ccco2)c2ncn(C3CCCO3)c2n1` (stereo not drawn) [Compound 7], in test [1] (10 μM), the “Period length ± standard error of the mean (expressed relative to control) at the indicated concentration” value is reported as 10 μM: 1.13 ± 0.02.
Consider `Clc1nc(NCc2ccco2)c2ncn(C3CCOC3)c2n1` (stereo not drawn) [Compound 8], for which the results for the “Period length ± standard error of the mean (expressed relative to control) at the indicated concentration” value in test [1] (10 μM) and in test [1] (20 μM) were 1.04 ± 0.01 and 1.22 ± 0, respectively.
Consider `Clc1nc(NCc2ccco2)c2ncn(C3CCCCO3)c2n1` (stereo not drawn) [Compound 9], for which the “Period length ± standard error of the mean (expressed relative to control) at the indicated concentration” value is reported as 1.09 ± 0.01 in test [1] (10 μM) and 1.11 ± 0.01 in test [1] (20 μM).
On to `Cc1ccc(CNc2nc(Cl)nc3c2ncn3C2CCCO2)o1` (stereo not drawn) [Compound 12], for which, in test [1] (10 μM), the “Period length ± standard error of the mean (expressed relative to control) at the indicated concentration” value is 10 μM: 1.16 + 0.01.
Turning to `Cc1ccc(CNc2nc(Cl)nc3c2ncn3C2CCCCO2)o1` (stereo not drawn) [Compound 13, 2-chloro-N-[(5-methylfuran-2-yl)methyl]-9-(tetrahydro-2H-pyran-2-yl)-9H-purin-6-amine], the “Period length ± standard error of the mean (expressed relative to the control) at the indicated concentration” value in test [2] (10 μM) is reported as 10 μM: 1.19 ± 0.01.
As to `OCCNc1nc(NCc2ccco2)c2ncn(C3CCCC3)c2n1` [Compound 19], the “Period length ± standard error of the mean (expressed relative to control) at the indicated concentration” value in test [1] (1 μM) worked out at 1.07 ± 0.01; in test [1] (4 μM), 1.21 ± 0.01.
Regarding `CC(C)Oc1nc(NCc2ccco2)c2ncn(C3CCCC3)c2n1` [Compound 21], the “Period length ± standard error of the mean (expressed relative to control) at the indicated concentration” value in test [1] (20 μM) is 20 μM: 1.26 ± 0.06.
With `CNc1nc(NCc2ccco2)c2ncn(C3CCOC3)c2n1` (stereo not drawn) [Compound 25], the “Period length ± standard error of the mean (expressed relative to control) at the indicated concentration” value in test [1] (20 μM) is given as 20 μM: 1.06 ± 0.01.
On the same count and under the same terms, as for `CN(CCN)c1nc(NCc2ccco2)c2ncn(C3CCOC3)c2n1` (stereo not drawn) [Compound 27], the figure is 20 μM: 1.25 ± 0.01; as for `CN(C)CCNc1nc(NCc2ccco2)c2ncn(C3CCOC3)c2n1` (stereo not drawn) [Compound 28], 20 μM: 1.16 ± 0.
Still for that read-out and setting: the value for `NCCNc1nc(NCc2ccco2)c2ncn(C3CCOC3)c2n1` (stereo not drawn) [Compound 29] was 20 μM: 1.09 ± 0; that for `OCCNc1nc(NCc2ccco2)c2ncn(C3CCOC3)c2n1` (stereo not drawn) [Compound 30] was 20 μM: 1.05 ± 0; that for `c1coc(CNc2nc(N3CCOCC3)nc3c2ncn3C2CCOC2)c1` (stereo not drawn) [Compound 31] was 20 μM: 1.13 ± 0.01.
Same read-out and setting: as for `CC(C)Oc1nc(NCc2ccco2)c2ncn(C3CCOC3)c2n1` (stereo not drawn) [Compound 32], the figure is 20 μM: 1.09 ± 0; as for `c1coc(CNc2nc(NC3CCCC3)nc3c2ncn3C2CCCCO2)c1` (stereo not drawn) [Compound 39], 20 μM: 1.05 ± 0.01.
Turning to `c1coc(CNc2nc(N3CCCC3)nc3c2ncn3C2CCCCO2)c1` (stereo not drawn) [Compound 40], the “Period length ± standard error of the mean (expressed relative to control) at the indicated concentration” value in test [1] (10 μM) is 10 μM: 1.04 ± 0.
As for `NCCNc1nc(NCc2ccco2)c2ncn(C3CCCCO3)c2n1` (stereo not drawn) [Compound 41], the “Period length ± standard error of the mean (expressed relative to control) at the indicated concentration” value was 1.03 ± 0.01 in test [1] (1 μM), 1.07 ± 0 in test [1] (5 μM) and 1.32 ± 0.01 in test [1] (20 μM).
Turning to `CN(CCN)c1nc(NCc2ccco2)c2ncn(C3CCCCO3)c2n1` (stereo not drawn) [Compound 43], in test [1] (1 μM), the “Period length ± standard error of the mean (expressed relative to control) at the indicated concentration” value is 1 μM: 1.08 ± 0.01.
As to `c1coc(CNc2nc(N3CCOCC3)nc3c2ncn3C2CCCCO2)c1` (stereo not drawn) [Compound 47], the “Period length ± standard error of the mean (expressed relative to control) at the indicated concentration” value was 1.08 ± 0.01 in test [1] (5 μM) and 1.47 ± 0.03 in test [1] (20 μM).
In the case of `CC(C)Oc1nc(NCc2ccco2)c2ncn(C3CCCCO3)c2n1` (stereo not drawn) [Compound 49, N-(furan-2-ylmethyl)-2-isopropoxy-9-(tetrahydro-2H-pyran-2-yl)-9H-purin-6-amine], the “Period length ± standard error of the mean (expressed relative to control) at the indicated concentration” value in test [1] (20 μM) is 20 μM: 1.14 ± 0.01.
With `Cc1ccc(CNc2nc(N(C)C)nc3c2ncn3C2CCCCO2)o1` (stereo not drawn) [Compound 51], the “Period length ± standard error of the mean (expressed relative to the control) at the indicated concentration” value in test [2] (0.83 μM) was 1.05 ± 0.02; in test [2] (10 μM), 1.08; in test [2] (50 μM), 0.02; 50 μM: 1.74 ± 0.2.
As to `CNc1nc(NCc2ccco2)c2ncn(C3CCOCC3)c2n1` [Compound 52], the “Period length ± standard error of the mean (expressed relative to control) at the indicated concentration” value in test [1] (20 μM) is recorded as 20 μM: 1.08 ± 0.01.
Take `CN(C)c1nc(NCc2ccco2)c2ncn(C3CCOCC3)c2n1` [Compound 53]: the “Period length ± standard error of the mean (expressed relative to control) at the indicated concentration” value in test [1] (20 μM) is 20 μM: 1.22 ± 0.01.
`CN(CCN)c1nc(NCc2ccco2)c2ncn(C3CCOCC3)c2n1` [Compound 54]: in test [1] (5 μM), the “Period length ± standard error of the mean (expressed relative to control) at the indicated concentration” value is on record as 5 μM: 1.14 ± 0.02.
Regarding `CN(C)CCNc1nc(NCc2ccco2)c2ncn(C3CCOCC3)c2n1` [Compound 55, N^2-(2-(dimethylamino)ethyl)-N^6-(furan-2-ylmethyl)-9-(tetrahydro-2H-pyran-4-yl)-9H-purine-2,6-diamine], the “Period length ± standard error of the mean (expressed relative to control) at the indicated concentration” value in test [1] (4 μM) is 4 μM: 1.16 ± 0.01.
Consider `OCCNc1nc(NCc2ccco2)c2ncn(C3CCOCC3)c2n1` [Compound 57], for which, in test [1] (20 μM), the “Period length ± standard error of the mean (expressed relative to control) at the indicated concentration” value is listed as 20 μM: 1.16 ± 0.01.
Consider `c1coc(CNc2nc(N3CCOCC3)nc3c2ncn3C2CCOCC2)c1` [Compound 58], for which the “Period length ± standard error of the mean (expressed relative to control) at the indicated concentration” value in test [1] (20 μM) is 20 μM: 1.42 ± 0.04.
The same measure, in the same setting: as for `CC(C)Oc1nc(NCc2ccco2)c2ncn(C3CCOCC3)c2n1` [Compound 59], the figure is 1.2 ± 0.01 and 1.11 ± 0.02.
For `CN(C)c1nc(NCc2ccco2)c2ncn(C3CCCCCO3)c2n1` (stereo not drawn) [Compound 61], the “Period length ± standard error of the mean (expressed relative to control) at the indicated concentration” value in test [1] (10 μM) came out at 1.04 ± 0.01; in test [1] (20 μM), 1.15 ± 0.02.
As to `Cc1ccc(CNc2ncnc3nc[nH]c23)o1` [N^6-(5-methylfurfuryl)adenine, reference compound], the “Period length ± standard error of the mean (expressed relative to control) at the indicated concentration” value in test [1] (50 μM) was 50 μM: 1.01 ± 0.02.
